Values after ≈ are worked out from the molar mass of the structure shown. Read-outs that look alike come from different tables or passages of the source.
Legend:
[1] = system: L1210 murine leukemia cell lines; test: In vitro antitumor screening (PDC test), L1210 murine leukemia cell growth; assay type: cell-based; conditions: Mus musculus, 72 h; L1210 cells, 37° C., three days; value is ID50 multiplied by 10^7
Description: Another test protocol is the in vitro antitumor screening (PDC test) of compounds of the present invention on L1210 murine leukemia cell lines. L1210 cells, a murine leukemia cell line, were grown in RPMI 1640 supplemented with 5% fetal bovine serum and gentamicin (50 μg/ml).
Drug dilutions were prepared in the apropriate solvent and 20 μl of each dilution were added to 24-well Linbro tissue culture plats, followed by the addition of M 2.0 ml of cell suspension containing 3×10^4 cells per ml. Solvent and medium controls were included in each test. After incubation at 37° C. for three days in 5% CO2, the contents of each well were removed and the cells counted in a ZBI Coulter counter. Percent growth was calculated relative to the controls and the levels of drug activity wre expressed as ID50 in moles per liter using probit paper.

HCT-8 cells = test: In vitro proliferating human colon adenocarcinoma (HCA) cell screen, HCT-8 cells; assay type: cell-based; conditions: 60-65 hours at 37° C., value is ID50 multiplied by 10^7;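 further: ID50 is the molar concentration giving 50% growth inhibition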
Description: One test protocol is the in vitro proliferating human colon adenocarcinoma (HCA) cell screen. In this test, HCT-8 cells (HCA cell line received from Yale University) are trypsinized using trypsin-EDTA. A single cell suspension is achieved by passing the cells through a 26-gauge needle with a 20-cc syringe. A cell suspension is prepared using RPMI 1640+10% FCS+50 μg/ml gentamicin sulfate with a cell concentration of approximately 5,000 cells/ml. The cell suspension is dispensed in Linbro 24-well plates; 1 ml/well. The plates are incubated for approximately 48 hours at 37° C. in a 5% CO2 atmosphere. At this time test compounds are added in the appropriate concentration. Ten μl of the appropriate dilution is added to each well for a titration test. The plates are reincubated an additional 60-65 hours at 37° C. in a 5% CO2 atmosphere. The cells are lysed using a mix of cationic surfactant, glacial acetic acid and sodium chloride. Two ml of the lysed cell suspension from each well is added to 8 ml of diluent. The number of nuclei is determined using a Coulter counter (ZBI model), and a percent growth for each drug concentration is calculated.

[2] = system: lymphocytic leukemia P388; test: In vivo lymphocytic leukemia P388 test; parameters: species or system CD2 F1 mice; conditions: Mus musculus, P388, ip, read-out: P388 in vivo T/C × 100
Description: Another test protocol is the in vivo lymphocytic leukemia P388 test. the animals used are either male or female CD2 F1 mice, six or seven animals per test group. The tumor transplant is by intraperitoneal injection of dilute ascitic fluid containing cells of lymphocytic leukemia P388. The test compounds are administered intraperitoneally once daily for five consecutive days at various doses following tumor inoculation. The animals are weighed and survivors are recorded on a regular basis for 30 days. A compound is designated "toxic" if, at a given dose, all animals die prior to four days after the first injection of drug. A ratio of survival time for treated (T)/control (C) animals is calculated. A criterion for efficacy is a ratio T/C times 100 greater than or equal to 125. See Cancer Chemotherapy Reports, Part 3, 3, 1 (1972) for a comprehensive discussion of the protocol.

Escherichia coli = test: In vitro antibacterial (ABMF) microdilution test, Escherichia coli; assay type: cell-based; conditions: Mueller-Hinton broth, 37° C., 16-24 hours, read-out: ABMF minimal inhibitory conc, E. coli
Text: (§1) Still another test protocol is the in vitro antibacterial (ABMF) test which is a recognized standard microdilution susceptibility procedure in Mueller-Hinton broth against Gram-positive and Gram-negative bacterial test organisms. The procedure is a modification of a state-of-the-art procedure reported in Manual of Clinical Microbiology, Lennette, E. H., ed., by Barry, A. L. and C. Thornsberry at pages 463-474 and by Gavan, T. L. and A. L. Barry at pages 459-462, American Society for Microbiology, Washington, 1980.
(§2) In the test, a given bacterial culture is used to inoculate individual test wells of microdilution trays containing growth medium and test compound, the latter in a microdilution series: 1000, 333, 111, 37, 12, 4, 1.4, and 0.46 micrograms per milliliter. […] For convenience, values are reported for Escherichia coli, Corynebacterium Sp. ATCC 21698, Branhamella catarrhalis, Streptococcus pneumoniae, and Bacillus cereus.

[3] = system: Corynebacterium Sp. ATCC 21698; test: In vitro antibacterial (ABMF) microdilution test, Corynebacterium Sp.; assay type: cell-based; conditions: ATCC21698, Mueller-Hinton broth, 37° C., 16-24 hours, read-out: ABMF minimal inhibitory conc, Coryn. Species
Text: as §1, §2

Branhamella catarrhalis = test: In vitro antibacterial (ABMF) microdilution test, Branhamella catarrhalis; assay type: cell-based; conditions: Moraxella catarrhalis; Mueller-Hinton broth, 37° C., 16-24 hours; read-out: ABMF minimal inhibitory conc, B. cat.
Text: as §1, §2

Streptococcus pneumoniae = test: In vitro antibacterial (ABMF) microdilution test, Streptococcus pneumoniae; assay type: cell-based; conditions: Mueller-Hinton broth, 37° C., 16-24 hours, read-out: ABMF minimal inhibitory conc, S. pneu.
Text: as §1, §2

Bacillus cereus = test: In vitro antibacterial (ABMF) microdilution test, Bacillus cereus; assay type: cell-based; conditions: Mueller-Hinton broth, 37° C., 16-24 hours, read-out: ABMF minimal inhibitory conc, B. cer.
Text: as §1, §2

[4] = intraperitoneal, once daily for five days, survival time treated/control
[5] = 50 mg/kg, intraperitoneal, once daily for five days, survival time treated/control

Row | Compound | IC50 [1] [nM] | IC50 (HCT-8 cells) [nM] | response vs control in vivo at 25 mg/kg [2, 4] [%] | response vs control in vivo at 50 mg/kg [2, 5] [%] | response vs control in vivo at 100 mg/kg [2, 4] [%] | response vs control in vivo at 200 mg/kg [2, 4] [%] | MIC (Escherichia coli) [µg/mL] | MIC [3] [µg/mL] | MIC (Branhamella catarrhalis) [µg/mL] | MIC (Streptococcus pneumoniae) [µg/mL] | MIC (Bacillus cereus) [µg/mL] | response vs control in vivo at 50 mg/kg ([2]; 120 h) [%] | response vs control in vivo at 12.5 mg/kg [2, 4] [%] | response vs control in vivo at 1.56 mg/kg ([2]; 1.56 mg/kg, intraperitoneal, once daily for five days, survival time treated/control) [%] | response vs control in vivo at 3.12 mg/kg ([2]; 3.12 mg/kg, intraperitoneal, once daily for five days, survival time treated/control) [%] | response vs control in vivo at 6.25 mg/kg [2, 4] [%]
1 | COc1ccc2[nH]c3c([N+](=O)[O-])ccc(NC(C)CN(C)C)c3c(=O)c2c1 (stereo not shown) [Example 12, 1-[[2-Dimethylamino)-1-methylethyl]amino]-7-methoxy-4-nitro-9(10H)-acridinone, methanesulfonate, 1.25 hydrate] | 880 | 450 | 122 | 144 | 180 | 245 | 1.4 | 4.1 | 4.1 | < 0.46 | 4.1 | – | – | – | – | –
2 | CCOc1ccc2[nH]c3c([N+](=O)[O-])ccc(NC(C)CN(C)C)c3c(=O)c2c1 (stereo not shown) [Example 13, 1[[2-(Dimethylamino)-1-methylethyl]amino]-7-ethoxy-4-nitro-9(10H)-acridinone, monomethanesulfonate, hyrate] | 1090 | 500 | 180 | – | – | – | 12.3 | < 0.46 | 4.1 | 1.4 | 12.3 | 227 | – | – | – | –
3 | O=c1c2ccccc2[nH]c2c([N+](=O)[O-])ccc(NCCNCCO)c12 [Example 16, 1-[[2-[(2-hydroxyethyl)amino]ethyl]amino]-4-nitro-9(10H)-acridinone, methanesulfonate (1:1), hydrate (1:1)] | 330 | 200 | 125 | 159 | – | – | 1.4 | < 0.46 | < 0.46 | 1.4 | 1.4 | – | – | – | – | –
4 | CCOc1ccc2[nH]c3c([N+](=O)[O-])ccc(NCCNCCO)c3c(=O)c2c1.CS(=O)(=O)O [Example 17, 7-Ethoxy-1-[[2-[(2-hydroxyethyl)amino]ethyl]amino]-4-nitro-9(10H)-acridinone, methanesulfonate] | 180 | 120 | 124 | 138 | – | – | < 0.46 | < 0.46 | 1.4 | 1.4 | 4.1 | – | – | – | – | –
5 | CCCCOc1ccc2[nH]c3c([N+](=O)[O-])ccc(NCCNCCO)c3c(=O)c2c1 [Example 18, 7-Butoxy-1-[[2-[(2-hydroxyethyl)amino]ethyl]amino]-4-nitro-9(10H)-acridinone, methanesulfonate, 0.3 hydrate] | 350 | 400 | 136 | – | – | – | 111 | 37 | 333 | 37 | 333 | – | 121 | – | – | –
6 | CCOc1ccc2[nH]c3c([N+](=O)[O-])ccc(NCCN(CCO)CCO)c3c(=O)c2c1 [Example 19, 1-[[2-Bis(2-hydroxyethyl)amino]ethyl]amino]-7-ethoxy-4-nitro-9(10H)-acridinone, methanesulfonate 0.8 hydrate] | 1500 | 1010 | – | – | 130 | 147 | > 1000 | > 1000 | 111 | > 1000 | > 1000 | – | – | – | – | –
7 | CN(C)CCCNc1ccc([N+](=O)[O-])c2[nH]c3ccccc3c(=O)c12.CS(=O)(=O)O [Example 20, 1-[[3-(Dimethylamino)propyl]amino]-4-nitro-9(10H)-acridinone, methanesulfonate (1:1)] | 570 | 200 | – | 144 | 189 | – | 1.4 | < 0.46 | < 0.46 | < 0.46 | 4.1 | – | – | – | – | –
8 | CN(C)CCCNc1ccc([N+](=O)[O-])c2[nH]c3ccc(O)cc3c(=O)c12 [Example 21] | 19 | 2.8 | – | – | – | – | < 0.46 | 0.46 (≈ 1.29 µM) | < 0.46 | 0.46 (≈ 1.29 µM) | < 0.46 | – | – | 162 | 187 | 234
9 | COc1ccc2[nH]c3c([N+](=O)[O-])ccc(NCCCN(C)C)c3c(=O)c2c1 [Example 22, 1-[[3-(Dimethylaminopropyl)amino]-7-methoxy-4-nitro-9(10H)-acridinone, methanesulfonate (1:1), hemihydrate] | 1200 | 260 | 178 | 225 | 205 | – | 1.4 | < 0.46 | < 0.46 | < 0.46 | 4.1 | – | 156 | – | – | 138
10 | CCOc1ccc2[nH]c3c([N+](=O)[O-])ccc(NCCCN(C)C)c3c(=O)c2c1.CS(=O)(=O)O [Example 23, 1-[[(Dimethylamino)propyl]amino]-7-ethoxy-4-nitro-9(10H)acridinone, methanesulfonate] | 320 | 200 | 157 | 210 | – | – | < 0.46 | < 0.46 | < 0.46 | 1.4 | 12.3 | – | 135 | – | – | –
11 | CCCCOc1ccc2[nH]c3c([N+](=O)[O-])ccc(NCCCN(C)C)c3c(=O)c2c1.CS(=O)(=O)O [Example 24, 7-Butoxy-1-[[3-(dimethylamino)propyl]amino]-4-nitro-9(10H)-acridinone, methanesulfonate] | 350 | 370 | 151 | – | – | – | 12.3 | 4.1 | 12.3 | 1.4 | 111 | – | 123 | – | – | –

— US4626540A, “Substituted 1-amino-4-nitro-acridinones and methods of treating bacterial infections and leukemia with them” (Warner-Lambert Company, priority 1984, dated 1986)
